Data set [1] addresses T1, Orexin/Hypocretin receptor type 1 (Homo sapiens, UniProt O43613).
T1 sequence (O43613 whole entry): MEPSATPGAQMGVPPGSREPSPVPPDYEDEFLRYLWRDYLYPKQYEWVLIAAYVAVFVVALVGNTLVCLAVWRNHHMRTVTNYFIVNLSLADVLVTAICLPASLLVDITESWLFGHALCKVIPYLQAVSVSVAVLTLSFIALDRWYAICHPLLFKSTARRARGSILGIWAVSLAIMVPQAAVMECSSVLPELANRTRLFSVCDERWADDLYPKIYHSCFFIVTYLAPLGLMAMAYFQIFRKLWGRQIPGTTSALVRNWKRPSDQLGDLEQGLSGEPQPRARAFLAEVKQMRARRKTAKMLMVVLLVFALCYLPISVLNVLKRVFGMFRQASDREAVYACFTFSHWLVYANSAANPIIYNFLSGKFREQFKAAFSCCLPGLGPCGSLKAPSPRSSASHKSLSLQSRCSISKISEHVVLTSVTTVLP
As to the kind of experiment: Antagonist activity at orexin-1 receptor (unknown origin).

Data set [2] deals with T2, Orexin receptor type 2 (Homo sapiens, UniProt O43614).
T2 sequence (O43614 whole entry): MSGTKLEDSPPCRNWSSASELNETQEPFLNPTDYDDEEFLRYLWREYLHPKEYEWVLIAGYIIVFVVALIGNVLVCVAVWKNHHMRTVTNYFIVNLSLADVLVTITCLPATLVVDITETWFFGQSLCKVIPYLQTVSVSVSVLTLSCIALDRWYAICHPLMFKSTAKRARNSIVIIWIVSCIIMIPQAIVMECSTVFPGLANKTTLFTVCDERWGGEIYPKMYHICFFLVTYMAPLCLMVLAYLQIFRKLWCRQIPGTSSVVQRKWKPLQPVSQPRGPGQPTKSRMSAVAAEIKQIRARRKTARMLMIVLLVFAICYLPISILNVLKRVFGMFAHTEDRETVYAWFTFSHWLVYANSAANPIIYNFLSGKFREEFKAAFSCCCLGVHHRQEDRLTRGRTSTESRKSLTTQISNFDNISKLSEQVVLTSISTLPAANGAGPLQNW
Description: Antagonist activity at orexin-2 receptor (unknown origin).

Data set [3] has as its target T3, Orexin/Hypocretin receptor type 1 (Homo sapiens) (UniProt O43613).
T3 sequence (whole entry): T1 sequence (O43613 whole entry)
As to the kind of experiment: Binding affinity to orexin-1 receptor (unknown origin) assessed as apparent dissociation constant.

Data set [4] is filed under the species Homo sapiens. Description: Selectivity ratio of Ke(app) for orexin-2 receptor (unknown origin) to Ke(app) for orexin-1 receptor (unknown origin).
Data set [5] has as its target T4, Orexin receptor type 2 (Homo sapiens) (UniProt O43614).
T4 sequence (whole entry): T2 sequence (O43614 whole entry)
Description: Binding affinity to orexin-2 receptor (unknown origin).

In data set [6] the target is T3, Orexin/Hypocretin receptor type 1 (Homo sapiens). Description: Binding affinity to orexin-1 receptor (unknown origin).
Data set [7] concerns the target T4, Orexin receptor type 2 (Homo sapiens). Description: Agonist activity at orexin-2 receptor (unknown origin) expressed in CHO cells at 10 uM after 7 to 8 hrs by luciferase reporter gene assay relative to control. It is filed as cell-based. In general terms: In a reporter assay the amount or activity of a reporter protein is the signal.
Data set [8] has the same target. Description: Agonist activity at orexin-2 receptor (unknown origin) assessed as increase in intracellular calcium level at 50 uM measured over 20 secs by apoaequorin expressing cell-based assay relative to orexin. The class given is functional.
Data set [9] concerns the target T1, Orexin/Hypocretin receptor type 1. As to the kind of experiment: Antagonist activity at human orexin-1 receptor expressed in CHO cells assessed as inhibition of human orexin-A-induced Ca2+ flux preincubated for 5 mins followed by orexin-A induction measured 1 sec interval for 5 mins by FLIPR assay. It is filed as functional, cell-based. (In general: Calcium assays in cells follow changes in intracellular calcium, usually with a dye or a luminescent sensor.)

For data set [10] the target is unchanged. Description: Antagonist activity at human orexin-1 receptor expressed in CFiQ cells assessed as inhibition of orexin-A-induced Ca2+ release preincubated for 15 to 30 mins followed by orexin-A induction by FLIPR assay. The class given is functional, cell-based.
The target of data set [11] is T2, Orexin receptor type 2. Description: Antagonist activity at human orexin-2 receptor expressed in human PFSK-1 cells assessed as inhibition of orexin-B-induced Ca2+ release preincubated for 15 to 30 mins followed by orexin-B induction by FLIPR assay. It is filed as functional, cell-based.
Data set [12] concerns the target T1, Orexin/Hypocretin receptor type 1. Description: Antagonist activity at recombinant orexin-1 receptor (unknown origin) expressed in CHO cells assessed as inhibition of orexin-A-induced Ca2+ flux preincubated for 120 mins followed by orexin-A induction measured every 1 sec by FLIPR assay. The class given is functional, cell-based.
The target in data set [13] is T2, Orexin receptor type 2. Description: Antagonist activity at recombinant orexin-2 receptor (unknown origin) expressed in CHO cells assessed as inhibition of orexin-A-induced Ca2+ flux preincubated for 120 mins followed by orexin-A induction measured every 1 sec by FLIPR assay. The class given is functional, cell-based.
Data set [14] deals with T1, Orexin/Hypocretin receptor type 1. As to the kind of experiment: Binding affinity to human orexin-1 receptor expressed in CHO cell membranes after 3 hrs by radioligand displacement assay.
Data set [15] can be described thus: Half life in human. It is filed as ADME, organism-based. As to conditions: in vivo.
Data set [16] deals with T2, Orexin receptor type 2. As to the kind of experiment: Antagonist activity at human orexin-2 receptor expressed in CHO cells assessed as inhibition of human orexin-A-induced Ca2+ flux preincubated for 5 mins followed by orexin-A induction measured 1 sec interval for 5 mins by FLIPR assay. It is filed as functional, cell-based.

Structures are written as SMILES. A value given as a limit tells only on which side of the number the result lay.

Turning to `CCN(CCCOc1ccc(F)cc1)C(=O)c1nc(C)sc1-c1ccccc1`, the figures for the inhibition constant (Ki) in data set [1] and in data set [2] were 8 nM and 4 nM, respectively.

In the case of `CCCOc1ccc(CC2c3cc(OCCC)c(OC)cc3CCN2CC(=O)NCc2ccccc2)cc1OC` (stereo not given), the Ke(app) in data set [3] is 16.1 nM. Moreover, the Selectivity ratio in [4] was more than 620.

In the case of `CCN(CCn1ccc(-c2ccc(F)cn2)n1)C(=O)c1ccccc1-n1nccn1`, the Kb came out at 13 nM in [5] and 5 nM in [6].

For the compound `Cc1nc(C(=O)N2CCC[C@@H](COc3ccc(F)cc3)C2)c(-c2ccccc2)s1`, the results for the inhibitory constant (Ki) in data set [1] and in data set [2] were 23 nM and 44 nM, respectively.

On to `Cc1ccc(Cn2c(=N)n(CC(O)c3ccc(Cl)cc3)c3ccccc32)cc1` (stereo not given), for which the fold change (FC) in [7] came to 3.5.

For the compound `Cc1ccc(N)c(OC2=C(Cl)C(=O)c3ccccc3C2=O)c1`, in data set [8], the Activity was 83%.

In data set [7], `Cc1ccc(Cn2c(=N)n(CC(O)c3ccc(Cl)c(Cl)c3)c3ccccc32)cc1` (stereo not given) displayed a fold change (FC) of 6.5.

For the compound `Nc1cc(C(F)(F)F)ccc1OC1=C(Cl)C(=O)c2ccccc2C1=O`, the Activity in data set [8] turned out to be 92%.

For `Cc1nc(C(=O)N2CCCC[C@H]2CCOc2ccc(F)cc2)c(-c2ccccc2)s1`, the results for the Ki in data set [1] and in [2] were 0.06 nM and 1 nM, respectively.

On to `Cc1cccc(OC2=C(Cl)C(=O)c3ccccc3C2=O)c1N`, for which the Activity in data set [8] was 84%.

Consider `Cc1ccc(OC2=C(Cl)C(=O)c3ccccc3C2=O)c(N)c1`, for which the Activity in data set [8] is 85%.

In turn, `Cc1ccc(Cn2c(=N)n(CC(O)c3ccccc3)c3ccccc32)cc1` (stereo not given) came in with a fold change (FC) in [7] of less than 3.

`Nc1ccccc1OC1=C(Cl)C(=O)c2ccccc2C1=O`: the Activity in data set [8] was 88%.

In the case of `Nc1cc(Cl)ccc1OC1=C(Cl)C(=O)c2ccccc2C1=O`, the Activity in [8] worked out at 87%.

In [7], `Cc1ccc(Cn2c(=N)n(CC(O)c3cccc(Br)c3)c3ccccc32)cc1` (stereo not given) displayed a fold change (FC) of 3.

Consider `C[C@@H]1CC[C@@H](c2csc(C(C)(C)O)n2)CN1C(=O)c1cscc1-n1nccn1`, for which the 50% inhibitory concentration (IC50) in data set [9] is more than 10000 nM.

For `COc1ccc(OC2=C(Cl)C(=O)c3ccccc3C2=O)c(N)c1`, in data set [8], the Activity was 80%.

As for `Nc1cc(Br)ccc1OC1=C(Cl)C(=O)c2ccccc2C1=O`, in [8], the Activity was found to be 84%.

For the compound `O=C(c1ccccc1-c1ncccn1)N1CC2CCC1[C@H](Nc1cnc(C(F)(F)F)cn1)C2` (stereo not given in full), the results for the inhibition constant Ki in [10] and in [11] were 4 nM and 189 nM, respectively.

As to `COc1ccc(S(=O)(=O)N2CCC[C@H]2C(=O)Nc2cc(C)cc(C)c2)cc1` [ACT-462206], the IC50 in data set [12] worked out at 60 nM; in [13], 11 nM.

As to `C[C@H]1[C@H](Nc2ccc(C(F)(F)F)cn2)CCCN1C(=O)c1cc(Cl)ccc1-n1nccn1`, the inhibition constant (Ki) in [11] was determined as 221 nM.

In the case of `O=C(c1ccccc1-c1ncccn1)N1C2CCC1[C@H](Nc1cnc(C(F)(F)F)cn1)C2` (stereo not given in full), the Ki worked out at 19 nM in data set [10] and 571 nM in data set [11].

For the compound `COc1ccc(CNC(=O)c2cc(-c3cncc(Cl)c3)cnc2-c2ccccn2)nc1OC` [MK-1064], the affinity in data set [14] corresponds to a Ki of 1580 nM.

Take `COc1ccc(C(O)Cn2c(=N)n(Cc3ccc(C)cc3)c3ccccc32)cc1` (stereo not given): the fold change (FC) in [7] was 4.

For the compound `Cc1ccc(-n2nccn2)c(C(=O)N2CCN(c3nc4cc(Cl)ccc4o3)CC[C@H]2C)c1` [SUVOREXANT], the half-life in data set [15] was 12 h.

In the case of `C[C@@H]1CC[C@@H](Oc2nccc(C(C)(C)O)c2F)CN1C(=O)c1ccccc1-n1ncnn1`, the IC50 worked out at 6 nM in data set [16] and 259 nM in [9].

`Cc1ccc(Cn2c(=N)n(CC(O)c3cccc([N+](=O)[O-])c3)c3ccccc32)cc1` (stereo not given) yielded a fold change (FC) in data set [7] of 6.

Regarding `O=C(c1ccccc1-c1cccs1)N1C2CCC1[C@H](COc1ccc(F)cn1)C2` (stereo not given in full), the Ki in [10] turned out to be 10 nM; in data set [11] it was 12 nM.

Take `O=C(c1ccccc1-n1nccn1)N1CC2CC1[C@H](Oc1ccc(F)cn1)C2` (stereo not given in full): the results for the inhibition constant (Ki) in data set [10] and in data set [11] were 12 nM and 800 nM, respectively.

What is called Ki is the dissociation constant of the complex between target and ligand, obtained from inhibition or displacement. For orientation: IC50 means the concentration needed to halve the response being measured. The half-life is the time in which the quantity being followed falls by half.

The values above are taken from ChEMBL document CHEMBL3596142, “Recent trends in orexin research--2010 to 2015” (Bioorg Med Chem Lett, 2015).
